In ChEMBL document CHEMBL1123640, “Synthesis and antiviral activity of carbocyclic analogues of xylofuranosides of 2-amino-6-substituted-purines and 2-amino-6-substituted-8-azapurines” (1987) one finds MIC50, Virus rating and EC50 data, which are given here for 5 compounds.

What all share (format): functional
Experiment [1] concerns Human alphaherpesvirus 1. Briefly: Minimum inhibitory concentration required to inhibit Herpes simplex virus type 1 (strain 377) induced cytopathogenic effects by 50%. On the technique in general: Protection from cytopathic effect is a common read-out in antiviral testing.
Experiment [2] relates to Human alphaherpesvirus 1. Briefly: The compound was tested in vitro for anti viral activity against Herpes simplex virus type 1 (strain 377).
The next experiment relates to P388. In words: Tested for inhibitory activity against P-388 leukemia cells. The note with it: Mus musculus, read-out: ED50 (the source's name).
Experiment [3] concerns Human alphaherpesvirus 1. Briefly: The compound was tested in vitro for definite and significant anti viral activity against Herpes simplex virus type 1 (strain 377); value indicates definite and significant antiviral activity.

In brackets after ≈: the same amount, converted by molar mass.

Turning to `Nc1nc(N)c2ncn(C3CC(CO)C(O)C3O)c2n1` (stereo not drawn), the MIC50 with Human alphaherpesvirus 1 [1] is 85 µg/mL (≈ 303 µM). The same compound came in with a Virus rating with Human alphaherpesvirus 1 [2] of 2.7. For the same compound, the EC50 in the experiment with P388 was 39 µM.
For `Nc1nc(Cl)c2nnn(C3CC(CO)C(O)C3O)c2n1` (stereo not drawn) the same measures were 100 µg/mL (≈ 333 µM), 0.6 and 50 µM.
For `Nc1nc(Cl)c2ncn(C3CC(CO)C(O)C3O)c2n1` (stereo not drawn) the same measures were 100 µg/mL (≈ 334 µM), 1.8 and 220 µM.
The compound `Nc1nc(N)c2nnn(C3CC(CO)C(O)C3O)c2n1` (stereo not drawn) gave an MIC50 in the experiment with Human alphaherpesvirus 1 [1] of 66.9 µg/mL (≈ 238 µM). In the experiment on Human alphaherpesvirus 1 [3], this compound yielded a Virus rating of 2. Further, in the experiment with P388, the EC50 is 5.3 µM.
Consider `COc1nc(N)nc2c1nnn2C1CC(CO)C(O)C1O` (stereo not drawn), for which, in the experiment with P388, the EC50 was found to be 63 µM.
